Literature values in patent publication US6544543B1, “Periodic constriction of vessels to treat ischemic tissue” (Advanced Cardiovascular Systems, Inc., priority 2000, dated 2003).

How the values were obtained:
[1] = avidin tetramer-biotin noncovalent interaction
[2] = avidin tetramer binds four biotin molecules in solution, noncovalent interaction

## avidin: polypeptide of at least 128 amino acid residues, forms a tetramer, binds four biotin molecules; member of the affinity pair
[1]
  half-life in vivo: about 89 days
[2]
  binding constant: about 10^15 M^−1
